Among the data in PubChem BioAssay AID2423 (Broad Institute, 2010) are EC50 values, retold here.

Values joined by “and” are separate entries in the source; they are usually repeats but may differ in a detail not shown here. Identical values can stand only once. Results filed as inconclusive are left out. Active and inactive are the calls of the source. The rule behind the calls is not given here.

For the assay, the system named is C. albicans CaCi-8 + fluconazole, Alamar Blue growth, 48 h. In words: resistant C. albicans growth inhibition with fluconazole, dose response, CaCi-8 strain, Alamar Blue fluorescence (AID 2423).

As a reminder, the EC50 is the concentration needed to bring the measured effect to its halfway point.

For the compound `CCCCN(C(=O)/C=C/c1ccco1)c1c(N)n(Cc2ccccc2)c(=O)[nH]c1=O`, the EC50 was > 15 µM (inactive).

Regarding `O=C(Nc1cccc(-c2nc3ccccc3s2)c1)c1cc(-n2cnnc2)ccc1Cl`, the EC50 is 1.51 µM.

Consider `COc1ccc(NC(=O)c2ccc([N+](=O)[O-])o2)cc1`, for which the EC50 was 1.34 µM.

In the case of `Cc1nn(-c2ccccc2)c(N2CCCC2)c1/C=N/NC(=O)c1ccccc1O`, the EC50 is > 15 µM (inactive).

With `COc1ccc(CNCCNC(=O)c2ccco2)c(OC)c1OC`, the EC50 is > 16 µM (inactive).

For `Oc1ccc(O)c2c1C1c3ccccc3C2c2ccccc21`, the EC50 is 2.05 µM.

Regarding `CCn1nnnc1NC(=O)c1cc(Cl)c(OC)c(Cl)c1`, the EC50 was 5.45 µM.

As for `CC[n+]1cc(C)ccc1/C=C/c1ccc(N(C)C)cc1`, the EC50 was 1.41 µM.

Take `Cc1cccc(C(=O)O/N=C/c2c(N3CCOCC3)n(C)c3ccccc23)c1`: the EC50 was 0.799 µM.

Consider `O=C(COc1ccc2c(c1)CCC2)NCc1cccc(Cl)c1`, for which the EC50 was 10.9 µM.

As for `Cc1ccc(NC2=CC(=O)C(=O)c3ccccc32)cc1`, the 50% effective concentration (EC50) was 0.451 µM.

Regarding `O=C(Nc1nc2ccc(S(=O)(=O)N3CCCCC3)cc2s1)c1ccncc1`, the EC50 is 1.04 µM.

For the compound `COCCNC(=O)NC12CC3CC(CC(C3)C1)C2`, the EC50 is > 16 µM (inactive).

As for `CC(=S)/C=C1\Sc2ccccc2N1C`, the EC50 is 5.57 µM.

For the compound `CCN(CC)c1ccc(/C=N/NC(=O)c2ccc3nc[nH]c3c2)c(O)c1`, the EC50 was 1.16 µM.

As to `COc1cccc(-n2nnnc2S(C)(=O)=O)c1`, the EC50 is > 15 µM (inactive).

Consider `C[C@H]([C@@H](N)C(=O)N[C@@H](C(=O)O)[C@@H]1O[C@H](n2ccc(=O)[nH]c2=O)[C@@H](O)[C@H]1O)[C@@H](O)c1ccc(O)cn1`, for which the EC50 was 3.16 µM.

`Cc1ccc(NS(=O)(=O)c2ccc(CCC(=O)NCCO)cc2)cc1`: the EC50 is > 15 µM (inactive).

Take `CC(C)c1noc2ncc(C(=O)c3cc(Cl)cc(Cl)c3O)cc12`: the EC50 was 2.91 µM.

Turning to `CCOC(=O)c1ccc(-c2ccc(C3Nc4ccccc4C(=O)N3O)o2)cc1` (configuration not stated), the EC50 is 5.63 µM.

Take `CCN(CC)c1ccc(N=Cc2ccc(N(CC)CC)cc2O)cc1`: the EC50 was 11.1 µM.

With `O=C(c1ccc2c(c1)OCO2)N1CCC2(CC1)Oc1ccc(F)cc1C(=O)C21CC(c2cccnc2)=NO1` (configuration not stated), the EC50 is 0.402 µM.

With `COc1ccc2c(c1OC)C(=O)N1N=C(c3ccc(O)cc3)CC21` (configuration not stated), the EC50 is > 15 µM (inactive).

As for `O=C(NNC(=O)c1cc(-c2ccncc2)nc2ccccc12)c1ccccc1O`, the EC50 is 2.29 µM.

Regarding `O=C(O/N=C1/CCSc2ccccc21)c1ccc(F)cc1`, the EC50 is > 15 µM (inactive).

Regarding `COc1ccc(-n2c(-c3cccc(C)c3[N+](=O)[O-])n[nH]c2=S)cc1`, the EC50 was 0.316 µM.

Turning to `Cc1ccc(S(=O)(=O)C(C#N)c2nc3ccccc3nc2N2CCN(C)CC2)cc1C` (configuration not stated), the EC50 was 16 µM.

In the case of `COc1cccc(/C=N/Nc2cc(C)nc(-c3ccccc3O)n2)c1O`, the EC50 is less than 0.12 µM.

For the compound `Cc1ccc(C(=O)N/N=C/c2c(O)ccc3ccccc23)cn1`, the EC50 is 0.947 µM.

Turning to `O=C(NC(=S)NNC(=O)c1cnccn1)c1ccc(Cl)cc1`, the EC50 is 3.42 µM.

Consider `O=[N+]([O-])c1cc(CN2CCN(c3ccccc3)CC2)c(O)c2ncccc12`, for which the half-maximal effective concentration (EC50) is 0.335 µM.

Consider `Oc1ccc(/C=N/NP(=S)(c2ccccc2)c2ccccc2)c(O)c1O`, for which the EC50 was 8.83 µM.

Turning to `O=C(N/N=C\c1c(O)ccc2ccccc12)c1cncc(Br)c1`, the EC50 was 0.689 µM.

Consider `O=C1c2ccccc2NC(c2ccc(-c3ccc(Br)cc3)o2)N1O` (configuration not stated), for which the EC50 was 2.12 µM.

As for `Cc1cc(/C=N/n2c(COc3ccccc3C)nc3ccccc3c2=O)c(O)c([N+](=O)[O-])c1`, the EC50 was 1.62 µM.

For `Cc1ccc2nc(-c3ccccc3Cl)cc(C(=O)Nc3cc(C)on3)c2c1`, the EC50 was 0.505 µM.

On to `NC(=O)c1ccsc1NC(=O)CCS(=O)(=O)c1ccccc1`, for which the EC50 was 1.73 µM.

Consider `COc1cc(/C=C(\C#N)c2nc3ccccc3[nH]2)ccc1O`, for which the EC50 was 1.49 µM.

On to `C[C@]12CC[C@H](O)C[C@@H]1CC[C@@H]1[C@@H]2CC[C@]2(C)C(=O)CC[C@@H]12`, for which the concentration giving a half-maximal response (EC50) was 5.65 µM.

On to `Oc1ccc(/C=N/N(c2ccccc2)c2ccccc2)c(O)c1O`, for which the EC50 was 10.8 µM.

For `CCCCC(=O)NC(c1ccc(Cl)cc1Cl)c1ccc2cccnc2c1O` (configuration not stated), the EC50 was 0.407 µM.

On to `O=C(CN1C(=O)COc2ccccc21)NCCCN1CCc2ccccc2C1`, for which the EC50 was > 15 µM (inactive).

In the case of `CN1CCc2cc3c(c4c2[C@H]1[C@H](O)c1ccccc1-4)OCO3`, the EC50 was 8.2 µM.

With `O=C(O)CCCCCn1c(O)c(C=C2N=c3ccccc3=N2)sc1=S`, the EC50 is 1.64 µM.

Consider `COc1ccc(CCNc2ncnc3sc(C)cc23)cc1OC`, for which the EC50 was 1.61 µM.

As to `Cc1noc(/C=C/c2ccccn2)c1[N+](=O)[O-]`, the EC50 is 1.9 µM.

For the compound `COc1ccc(C(C(=O)NC2CCCCC2)N(Cc2cccs2)C(=O)Cc2c[nH]c3ccccc23)cc1` (configuration not stated), the EC50 was > 15 µM (inactive).

`CCOc1ccc2c(c1)C(C)=CC(C)(C)N2S(=O)(=O)c1ccc(C)cc1`: the EC50 is > 16 µM (inactive).

Consider `Cc1ccc(S(=O)(=O)NNC(=O)c2ccc(NC(=O)C3CC3)cc2)cc1`, for which the EC50 is > 15 µM (inactive).

As for `O=c1cnnc(N/N=C/c2ccccn2)[nH]1`, the EC50 was 0.875 µM.

In the case of `CC(=O)NC1CCCN(O)C(=O)/C=C(\C)CCOC(=O)C(NC(C)=O)CCCN(O)C(=O)/C=C(\C)CCOC(=O)C(NC(C)=O)CCCN(O)C(=O)/C=C(\C)CCOC1=O` (configuration not stated), the concentration for a half-maximal effect (EC50) is 0.783 µM.

On to `CCn1c(=O)c(C(=O)Nc2ncccc2C)c(O)c2ccccc21`, for which the EC50 is 3.35 µM.

For `CC(=O)Nc1ccc(N2CC(C)(C)C2=O)cc1`, the EC50 is > 15 µM (inactive).

Consider `COc1ccc(C(=O)NCCN2CCOCC2)c(OC)c1OC`, for which the EC50 is > 15 µM (inactive).

As for `CCOC(=O)c1c(NC(=O)C2Cc3ccccc3C(=O)O2)sc2c1CCCC2` (configuration not stated), the EC50 is > 16 µM (inactive).

Consider `O=C(O)c1ccc(-c2nc(-c3ccc(Cl)c(Cl)c3)cs2)cc1`, for which the EC50 was 4.16 µM.

Take `COc1ccc(C2Nc3ccccc3C(=O)N2O)cc1OC` (configuration not stated): the EC50 is > 15 µM (inactive).

For `Oc1ccc(/C=N/n2c(COc3ccccc3)n[nH]c2=S)cc1O`, the EC50 was 16.3 µM.

In the case of `COC(=O)c1ccc(COc2ccc(/C=C(\C#N)c3nc4ccccc4[nH]3)cc2OC)o1`, the EC50 is 2.62 µM.

As to `O=C1/C(=C\c2cccnc2)SC(=S)N1C1CCS(=O)(=O)C1` (configuration not stated), the EC50 was > 16 µM (inactive).

In the case of `CCN(CC)c1ccc(/C=N/NC(=O)c2ccco2)c(O)c1`, the concentration giving a half-maximal response (EC50) was 2.42 µM.

For the compound `CC1(C)CC(N2CCN(Cc3ccccc3)CC2)=CC(=[N+]2CCCCC2)C1`, the EC50 was 3.35 µM.

Take `COc1ccc(C(=O)NNC(=S)NC(=O)c2ccc(Cl)cc2)cc1`: the EC50 is 0.928 µM.

With `Cc1cc(Oc2ccccc2)nc(-c2ccccc2O)n1`, the EC50 is > 15 µM (inactive).

On to `CCNC(=S)NNC(=O)c1cc(-c2cccc(C)c2)nc2ccccc12`, for which the EC50 is 2.27 µM.

With `CCOC(=O)c1cc2c(=O)n3ccccc3nc2n(CCOC)c1=NC(=O)c1ccncc1`, the EC50 was > 15 µM (inactive).

For the compound `O=C(NC(=S)NNC(=O)c1cc2ccccc2cc1O)c1ccco1`, the EC50 was 1.03 µM.

Turning to `O=C(CSCc1cccc(CSCC(=O)Nc2ccccc2)n1)Nc1ccccc1`, the EC50 was > 15 µM (inactive).

`CCCOc1ccc(C(=O)NNC(=S)NC(=O)CC)cc1`: the EC50 was 0.937 µM.

Take `Cc1cccc(NCc2ccc(O)c3ncccc23)c1C`: the EC50 is 11.8 µM.

In the case of `O=[N+]([O-])c1cc(Cl)c(O)c2ncccc12`, the EC50 is 0.344 µM.

In the case of `Cc1ccc(C(=O)NC(=S)NNC(=O)c2ccccc2[N+](=O)[O-])cc1`, the EC50 is > 15 µM (inactive).

`O=C(NCCCc1ccccc1)Nc1cccc(Cl)c1`: the EC50 is 11.2 µM.

For the compound `COc1cccc(C(=O)NNC(=O)c2ccc3ccccc3c2O)c1`, the EC50 is 9.44 µM.

`COc1cccc(/C=N/Nc2nccnc2Cl)c1O`: the EC50 is 1.8 µM.

`Cc1oc2c(F)c(F)c(F)c(F)c2c1S(=O)(=O)Nc1cccc(C(F)(F)F)c1`: the EC50 is 1.49 µM.

As for `CC1=C/C(=N\NC(=S)NCCc2ccccc2)CC(C)(C)C1`, the EC50 was > 15 µM (inactive).

For `CCOC(=O)c1c(-c2ccccc2)oc2cc(Br)c(O)c(C=O)c12`, the EC50 is 1.44 µM.

Regarding `O=S(=O)(Cc1ccccc1)N1CCc2ccccc21`, the EC50 is 10.9 µM.

Turning to `O=c1cc(-c2ccccc2)c2ccc(O)cc2o1`, the concentration giving a half-maximal response (EC50) is 3.53 µM.

Take `CC(=O)Nc1ccc(Nc2c3ccccc3nc3ccccc23)cc1`: the EC50 is 5.98 µM.

Consider `COc1ccc(/C=C/c2cc(-c3ccc(C)cc3)o[n+]2C)cc1`, for which the EC50 is 1.65 µM.

Turning to `CCCc1cc(=O)[nH]c(SCc2csc(-c3ccccc3)n2)n1`, the EC50 is 1.39 µM.

Consider `c1csc(CNc2ncnc3sccc23)c1`, for which the EC50 is 1.76 µM.

Turning to `O=C(c1ccccc1)C(CN1CCCC1)c1ccccc1` (configuration not stated), the EC50 is > 16 µM (inactive).

Take `CCOc1ccc(/C=N/NC(=O)c2[nH]ncc2Br)c(O)c1`: the EC50 was 1.85 µM.

Turning to `O=C(O)c1cccc(CSc2nc(-c3ccccc3)cc(C(F)(F)F)n2)c1`, the EC50 was 6.82 µM.

For `Cn1c(/C=N/Nc2nc3ccccc3[nH]2)nc2ccccc21`, the EC50 is > 16 µM (inactive).

As for `O=C(Nc1ccncc1)c1ccc(Br)cc1`, the EC50 is > 15 µM (inactive).

For `Cc1ccc(C)c(/C=C/C(=O)c2ccccc(=O)c2O)c1`, the half-maximal effective concentration (EC50) is 1.99 µM.

`O=C(CSc1nnc(-c2ccc(Br)cc2)o1)Nc1cccc2ccccc12`: the EC50 is 15.6 µM.

`Cc1[nH]c2ccccc2c1C(=O)CCl`: the EC50 is 0.175 µM.

Turning to `CCOc1cc(/C=N/NC(=O)c2cccnc2)ccc1OCC(N)=O`, the EC50 is > 15 µM (inactive).

As to `CN1CCN(C(c2ccccn2)c2cc(Cl)c3cccnc3c2O)CC1` (configuration not stated), the EC50 is 1.17 µM.

Turning to `Cc1ccnc(Sc2ccc([N+](=O)[O-])cc2[N+](=O)[O-])n1`, the EC50 was 0.964 µM.

For the compound `CC1CCC(C(C)C)C(OC(=O)Cn2c(-c3ccc(Br)cc3)[n+](C)c3ccccc32)C1` (configuration not stated), the EC50 was 0.534 µM and 0.752 µM.

In the case of `Cc1cc2c(cc(C(=O)OCC(=O)NCc3ccco3)n2C)s1`, the EC50 is 6.46 µM.
